Laboratory results reported in PMC6429331, “Synthesis, Molecular Docking and β-Glucuronidase Inhibitory Potential of Indole Base Oxadiazole Derivatives” (Molecules, 2019).
Values belong to the compound of their own block, whether it stands above or below them.

Key:
[1] = target: T1, β-glucuronidase (Bos taurus, UniProt A3KMY8); experiment: β-Glucuronidase assay (p-nitrophenyl-β-D-glucuronide, absorbance at 405 nm); type: biochemical; details: classified into three groups from Table 1
T1 sequence (A3KMY8 24-652): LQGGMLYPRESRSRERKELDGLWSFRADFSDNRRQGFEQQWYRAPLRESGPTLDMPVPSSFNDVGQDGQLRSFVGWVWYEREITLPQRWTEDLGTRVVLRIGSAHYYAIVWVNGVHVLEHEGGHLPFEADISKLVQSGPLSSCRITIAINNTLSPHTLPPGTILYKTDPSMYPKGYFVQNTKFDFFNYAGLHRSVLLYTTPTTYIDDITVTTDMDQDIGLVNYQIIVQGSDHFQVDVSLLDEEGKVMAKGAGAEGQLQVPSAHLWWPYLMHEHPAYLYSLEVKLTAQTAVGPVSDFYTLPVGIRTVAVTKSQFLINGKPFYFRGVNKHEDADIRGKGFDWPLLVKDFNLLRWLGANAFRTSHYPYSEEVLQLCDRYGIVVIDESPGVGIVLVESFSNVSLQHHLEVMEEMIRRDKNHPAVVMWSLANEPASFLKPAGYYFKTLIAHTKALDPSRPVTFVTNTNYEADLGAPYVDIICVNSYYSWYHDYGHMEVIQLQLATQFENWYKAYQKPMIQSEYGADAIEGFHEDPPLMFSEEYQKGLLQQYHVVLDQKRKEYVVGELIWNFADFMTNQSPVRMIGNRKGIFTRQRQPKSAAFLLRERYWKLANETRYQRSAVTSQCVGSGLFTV
Method: β-glucuronidase activity was determined in accordance to method used by measuring absorbance at 405 nm of p-nitrophenol formed substrate by spectrophotometric method. 250 µL was the volume of total reaction. Reaction mixture containing 5 µL of test compound solution, 185 µL of 0.1M acetate buffer, and 10 µL of enzyme solution were incubated for 30 min at 37 °C. At 405 nm the plates were recorded on multiplate reader (SpectaMax plus 384) after the addition of 50 µL of 0.4mM p-nitrophenyl-β-D-glucuronide. Experiments were performed for triplicate.

SMILES: Cc1ccc(-c2nnc(Cc3cc4ccccc4[nH]3)o2)cc1 [Compound 1, 2-((1H-indol-2-yl)methyl)-5-(p-tolyl)-1,3,4-oxadiazole]
melting point: 304 to 305 °C | activity group according to inhibitory IC50 values [1]: low active group

SMILES: Oc1cccc(-c2nnc(Cc3cc4ccccc4[nH]3)o2)c1 [Compound 4, 3-(5-((1H-indol-2-yl)methyl)-1,3,4-oxadiazol-2-yl) phenol]
melting point: 311 to 312 °C | activity group according to inhibitory IC50 values [1]: moderate active group

SMILES: Oc1ccc(O)c(-c2nnc(Cc3cc4ccccc4[nH]3)o2)c1 [Compound 5, 2-(5-((1H-indol-2-yl)methyl)-1,3,4-oxadiazol-2-yl) benzene-1,4-diol]
activity group according to inhibitory IC50 values [1]: moderate active group

SMILES: Oc1cccc(-c2nnc(Cc3cc4ccccc4[nH]3)o2)c1O [Compound 6, 3-(5-((1H-indol-2-yl)methyl)-1,3,4-oxadiazol-2-yl) benzene-1,2-diol]
melting point: 317 to 318 °C | activity group according to inhibitory IC50 values [1]: Highly active group

SMILES: Oc1ccc(-c2nnc(Cc3cc4ccccc4[nH]3)o2)cc1O [Compound 7, 4-(5-((1H-indol-2-yl)methyl)-1,3,4-oxadiazol-2-yl) benzene-1,2-diol]
melting point: 316 to 317 °C | activity group according to inhibitory IC50 values [1]: Highly active group

SMILES: Oc1ccc(-c2nnc(Cc3cc4ccccc4[nH]3)o2)c(O)c1 [Compound 8, 4-(5-((1H-indol-2-yl)methyl)-1,3,4-oxadiazol-2-yl) benzene-1,3-diol]
melting point: 318 to 319 °C

SMILES: O=[N+]([O-])c1ccc(-c2nnc(Cc3cc4ccccc4[nH]3)o2)cc1 [Compound 12, 2-((1H-indol-2-yl)methyl)-5-(4-nitrophenyl)-1,3,4-oxadiazole]
melting point: 309 to 310 °C

SMILES: COc1ccc(O)c(-c2nnc(Cc3cc4ccccc4[nH]3)o2)c1 [Compound 13, 2-(5-((1H-indol-2-yl)methyl)-1,3,4-oxadiazol-2-yl)-4-methoxyphenol]
melting point: 313 to 314 °C

SMILES: c1cncc(-c2nnc(Cc3cc4ccccc4[nH]3)o2)c1 [Compound 16, 2-((1H-indol-2-yl)methyl)-5-(pyridin-3-yl)-1,3,4-oxadiazole]
melting point: 279 to 280 °C

SMILES: c1ccc2[nH]c(Cc3nnc(-c4ccncc4)o3)cc2c1 [Compound 17, 2-((1H-indol-2-yl)methyl)-5-(pyridin-4-yl)-1,3,4-oxadiazole]
melting point: 284 to 285 °C

Second part, the compound after the results:

melting point: 300 to 301 °C | activity group according to inhibitory IC50 values [1]: low active group
SMILES: Cc1ccccc1-c1nnc(Cc2cc3ccccc3[nH]2)o1 [Compound 2, 2-((1H-indol-2-yl)methyl)-5-(o-tolyl)-1,3,4-oxadiazole]

melting point: 314 to 315 °C
SMILES: Oc1ccccc1-c1nnc(Cc2cc3ccccc3[nH]2)o1 [Compound 3, 2-(5-((1H-indol-2-yl)methyl)-1,3,4-oxadiazol-2-yl) phenol]

melting point: 307 to 308 °C
SMILES: O=[N+]([O-])c1ccccc1-c1nnc(Cc2cc3ccccc3[nH]2)o1 [Compound 10, 2-((1H-indol-2-yl)methyl)-5-(2-nitrophenyl)-1,3,4-oxadiazole]

melting point: 303 to 304 °C
SMILES: O=[N+]([O-])c1cccc(-c2nnc(Cc3cc4ccccc4[nH]3)o2)c1 [Compound 11, 2-((1H-indol-2-yl)methyl)-5-(3-nitrophenyl)-1,3,4-oxadiazole]

melting point: 294 to 295 °C
SMILES: Fc1ccccc1-c1nnc(Cc2cc3ccccc3[nH]2)o1 [Compound 18, 2-((1H-indol-2-yl)methyl)-5-(2-fluorophenyl)-1,3,4-oxadiazole]
